Data: patent US6407085B1, “Medicament containing betasitosterol and/or phytosterol/betasitosterol mixtures” (priority 1997, dated 2002)

Assays:
[1] = in vivo; cited from earlier work
[2] = chloroform; cited from earlier work
[3] = solubility in oils, chloroform and water at room temperature
[4] = dissolving in oils, paraffins, stearates, Vaseline or glycerin with heat; type: physicochemical; conditions: for appearance in glycerin after cooling: after heating in glycerin; for appearance in oil after cooling: after heating in oil
Experimental: The solubility of phytosterol/betasitosterol mixtures and betasitosterol metabolites can be accelerated and improved with respect to yield if the effective ingredients are treated in oil, paraffins, stearates, or Vaseline with the application of heat at temperatures of around 70° C. to 160° C., advantageously at 120° C. to 140° C., advantageously over a period of 30 minutes to 3 hours.
If betasitosterol or sodium desoxycholate is heated in diverse natural and mineral oils, paraffins, commercially-available hypoallergenic stearate mixtures, or Vaseline (2 g substance in 100 ml) to 120° C., both substances dissolve fully within 90 minutes. Upon further heating to 150° C. (at 140° C., betasitosterol becomes liquid), betasitosterol dissolves up to around 15% in stearate mixtures, paraffins, and plant and mineral oils. […] In like manner, betasitosterol and sodium desoxycholate can be introduced into glycerin.

[5] = cited from earlier work
psoriasis = assay: salve applied to the skin in psoriasis; type: in vivo
Experimental: If phytosterol/betasitosterol mixtures, when they are dissolved in the above described form in oil, are stirred into a salve base alone or in a mixture with sodium desoxycholate in aqueous solution in a concentration of 0.5 to 2.0% and the salve base is applied to the skin, the itching of neurodermatitis usually is eased after only 2 to 5 minutes. Inflammation processes with redness and swelling are alleviated after 24 to 48 hours. Thus a histamine antagonistic as well as a cortisone-like effect is determined, but without the side effects of the hormone. In the case of psoriasis, the formation of scales is often reduced even in extreme cases only 24 hours after the first application, particularly with the use of the metabolite desoxycholic acid. Here again the use of such substances is completely unproblematic in contrast to a salve with a component of vitamin-D-like structure, which as a result of the resorption of the vitamin-D-like molecule can be applied only to a limited extent because of the danger of overdosing and thus the influencing of calcium metabolism.

[6] = oral tolerability of betasitosterol esters; type: in vivo; conditions: taken orally

For CC[C@H](CC[C@@H](C)[C@H]1CC[C@H]2[C@@H]3CC=C4C[C@@H](O)CC[C@]4(C)[C@H]3CC[C@]12C)C(C)C [betasitosterol], the “portion metabolized into cholic acid and chenodesoxycholic acid” value [1] is given as “around 20%”, the “solubility (D'ans-Lax)” value [2] is given as “soluble in chloroform” and the “solubility in oil on addition of sodium desoxycholate” value [3] is given as “further improved”. The “solubility in oil at room temperature” value ([3]; linseed oil, safflower oil, neutral oil, standing longer than 24 h at room temperature) was “dissolves in sufficient quantity”, the “appearance in glycerin after cooling” value [4] was “slightly opalescent” and the “appearance in oil after cooling” value [4] was “slightly opalescent”. For the same compound, the dissolving in glycerin ([4]; heated to 120° C.) was “dissolve completely clear”, the amount dissolved ([4]; heating to 150° C., stearate mixtures, paraffins, plant and mineral oils) was “around 15%” and the resorption quotient ([5]; healthy subjects) was “around 5%”. The blood count ([5]; oral administration of up to 24 g per day) was 10 mg.
In the case of desoxycholic acid, the “time after first application until formation of scales is reduced” value (psoriasis) is reported as 24 h, the “appearance in glycerin after cooling” value [4] is reported as “white pasty mass” and the “appearance with safflower oil” value ([4]; heated to 120° C.) is reported as “cloudy-opalescent emulsion”.
In the case of CC[C@H](CC[C@@H](C)[C@H]1CC[C@H]2[C@@H]3CC=C4C[C@@H](OC(=O)[C@H](O)[C@@H](O)[C@H](O)[C@H](O)CO)CC[C@]4(C)[C@H]3CC[C@]12C)C(C)C [betasitosterol gluconic acid ester], the tolerability [6] is reported as “free of side effects and very well tolerated”.
For sodium desoxycholate, the water solubility [3] was “relatively water soluble”, the “appearance in glycerin after cooling” value [4] was “remains clear” and the “appearance in oil after cooling” value [4] was “remains clear”. For the same compound, the dissolving in glycerin ([4]; heated to 120° C.) was “dissolve completely clear”.
